Data published in patent publication US8137707B2, “Method of obtaining an active ingredient increasing cutaneous cell and tissue longevity, active ingredients and compositions” (Societe Industrielle Limousine d'Application Biologique, …, priority 2006, dated 2012).

Tested on: rat-tail collagen
Assay: Glycation of collagen induced by glycoaldehyde, fluorescence of glycation products
Type: biochemical
Conditions: 32 μl of aminoguanidine at 3.39 M, 14 days at 37° C.
Method: The study is carried out according to the operating protocol that follows.
On D0, samples to be tested are prepared in sterile hemolysis tubes: • a non-glycated collagen reference, containing • 1 ml of 3 mg/ml rat-tail collagen, • a glycated collagen reference, containing • 1 ml of 3 mg/ml rat-tail collagen, and • 0.3 ml of a glycoaldehyde solution at 143 mM, inducing the glycation reaction, • a positive reference, containing • 1 ml of 3 mg/ml of rat-tail collagen, • 0.3 ml of a solution of glycoaldehyde at 143 mM, inducing the glycation reaction, and • 32 μl of aminoguanidine at 3.39 M, inhibiting the glycation reaction. • product tests, containing • 1 ml of 3 mg/ml rat-tail collagen, • 0.3 ml of a solution of glycoaldehyde at 143 mM, inducing the glycation reaction, and • the active principle according to the invention at 1%, 2.5% and 5%.
The samples are incubated at 37° C. protected from light for 14 days.
On D14, the fluorescence emitted by the glycation products formed is measured with the aid of a spectrofluorimeter.

N=C(N)NN [Positive reference, aminoguanidine]
Fluorescence Value (glycated collagen reference 449): 189 | Effectiveness (%) (versus glycated collagen reference): −58%
